By GI50 is commonly meant the concentration that inhibits growth by half. One may read the IC50 as the point on the concentration scale where inhibition reaches its midpoint. A low value points to higher potency.

One assay relates to DU-145. Briefly: Cytotoxicity against human DU-145 cells assessed as cell growth inhibition for 72 hrs by MTT assay. Format: functional. For orientation: Tetrazolium dyes change colour on reduction, which living cells bring about.
The next assay has as its system A549. Put plainly: Cytotoxicity against human A549 cells assessed as cell growth inhibition for 72 hrs by MTT assay. The format is functional.
Assay [1] deals with T1, Tyrosyl-DNA phosphodiesterase 2 (Homo sapiens, UniProt O95551).
T1 sequence (O95551 whole entry): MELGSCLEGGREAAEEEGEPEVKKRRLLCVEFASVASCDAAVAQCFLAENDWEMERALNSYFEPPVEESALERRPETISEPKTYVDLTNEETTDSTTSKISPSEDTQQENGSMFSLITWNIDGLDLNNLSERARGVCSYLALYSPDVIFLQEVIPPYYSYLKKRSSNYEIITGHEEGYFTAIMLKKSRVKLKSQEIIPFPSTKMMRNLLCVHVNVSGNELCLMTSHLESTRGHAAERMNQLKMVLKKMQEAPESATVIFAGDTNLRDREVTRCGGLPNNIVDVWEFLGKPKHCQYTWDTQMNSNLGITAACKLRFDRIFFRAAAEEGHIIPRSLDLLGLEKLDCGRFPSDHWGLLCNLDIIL
Put plainly: Inhibition of N-terminal His-tagged human TDP2 expressed in Escherichia coli BL21 using 4-nitrophenyl phenylphosphonate as substrate incubated for 60 mins by EDTA based chromogenic assay.

On to `CCOC(CCCOc1cc2c(c3c1[C@H](C(C)C)C1=C(O3)C(C)(C)C(=O)C(C)(C)C1=O)[C@@H](C(C)C)C1=C(O2)C(C)(C)C(=O)C(C)(C)C1=O)OCC`, for which the concentration for 50% growth inhibition (GI50) in the assay on DU-145 (Homo sapiens, DU-145, 72 h) stood at 27 µM; in the assay on A549 (Homo sapiens, A549, 72 h), 62 µM. In addition, 41 µM corresponded to half-maximal inhibition in assay [1] (IC50).

Consider `CC(C)C(=O)c1c(O)c2c(c3c1OC1=C(C(=O)C(C)(C)C(=O)C1(C)C)[C@H]3C(C)C)OC1=C(C(=O)C(C)(C)C(=O)C1(C)C)[C@@H]2C(C)C` (racemic), for which the results for the GI50 in the assay on DU-145 (72 h) and in the assay on A549 (72 h) were 17 µM and 26 µM, respectively. It took 41 µM to reach half-maximal inhibition in assay [1] (IC50).

For `CC(C)[C@@H]1C2=C(Oc3c1c(O)cc1c3[C@@H](C(C)C)C3=C(O1)C(C)(C)C(=O)C(C)(C)C3=O)C(C)(C)C(=O)C(C)(C)C2=O`, the GI50 came to 23 µM with DU-145 (Homo sapiens, DU-145, 72 h) and 27 µM in the assay on A549 (Homo sapiens, A549, 72 h). Besides, in assay [1], the IC50 was found to be 25 µM.

With `CC(C)[C@@H]1C2=C(Oc3c1c(OCCCc1ccccc1)cc1c3[C@@H](C(C)C)C3=C(O1)C(C)(C)C(=O)C(C)(C)C3=O)C(C)(C)C(=O)C(C)(C)C2=O`, the GI50 is 29 µM in the assay on DU-145 (Homo sapiens, DU-145, 72 h) and 43 µM in the assay on A549 (Homo sapiens, A549, 72 h). In addition, the IC50 in assay [1] is 26 µM.

`CC(C)[C@@H]1C2=C(Oc3c1c(OCc1ccccc1)cc1c3[C@@H](C(C)C)C3=C(O1)C(C)(C)C(=O)C(C)(C)C3=O)C(C)(C)C(=O)C(C)(C)C2=O`: the GI50 is 19 µM in the assay on DU-145 (Homo sapiens, DU-145, 72 h) and 36 µM in the assay with A549 (Homo sapiens, A549, 72 h). In addition, 54 µM corresponded to half-maximal inhibition in assay [1] (IC50).

As for `CC(C)[C@@H]1C2=C(Oc3c1c(OCCN1CCOCC1)cc1c3[C@@H](C(C)C)C3=C(O1)C(C)(C)C(=O)C(C)(C)C3=O)C(C)(C)C(=O)C(C)(C)C2=O`, the GI50 in the assay with DU-145 (Homo sapiens, DU-145, 72 h) was 27 µM; with A549 (Homo sapiens, A549, 72 h), 39.6 µM. In assay [1], this molecule displayed an IC50 of 25 µM.

Take `CC(C)[C@@H]1C2=C(Oc3c1c(OCCCN1CCOCC1)cc1c3[C@@H](C(C)C)C3=C(O1)C(C)(C)C(=O)C(C)(C)C3=O)C(C)(C)C(=O)C(C)(C)C2=O`: the GI50 with DU-145 (Homo sapiens, DU-145, 72 h) came out at 26 µM; in the assay on A549 (Homo sapiens, A549, 72 h), 65.7 µM. This molecule showed an IC50 in assay [1] of 20 µM.

For the molecule `CC(C)[C@@H]1C2=C(Oc3c1c(OCC1CC1)cc1c3[C@@H](C(C)C)C3=C(O1)C(C)(C)C(=O)C(C)(C)C3=O)C(C)(C)C(=O)C(C)(C)C2=O`, the GI50 in the assay with DU-145 (Homo sapiens, DU-145, 72 h) is 13 µM; with A549 (Homo sapiens, A549, 72 h), 24 µM. Also, the IC50 in assay [1] amounted to 42 µM.

On to `CC(C)[C@@H]1C2=C(Oc3c1c(OCCCN1CCCC1)cc1c3[C@@H](C(C)C)C3=C(O1)C(C)(C)C(=O)C(C)(C)C3=O)C(C)(C)C(=O)C(C)(C)C2=O`, for which the GI50 in the assay with DU-145 (Homo sapiens, DU-145, 72 h) amounted to 38 µM; in the assay on A549 (Homo sapiens, A549, 72 h), 50 µM. The molecule further returned an IC50 in assay [1] of 19 µM.

For `CC(C)C(=O)c1c(O)c2c(c3c1OC1=C(C(=O)C(C)(C)C(=O)C1(C)C)[C@H]3C(C)C)OC1=C(C(=O)C(C)(C)C(=O)C1(C)C)[C@@H]2C(C)C`, the GI50 in the assay on DU-145 (72 h) turned out to be 41 µM; with A549 (72 h), 60 µM. In assay [1], this molecule came in with an IC50 of 50 µM.

With `COc1cc(O)c2c(c1C(=O)C(C)C)OC1=C(C(=O)C(C)(C)C(=O)C1(C)C)[C@H]2C(C)C`, the GI50 is 16 µM with DU-145 (Homo sapiens, DU-145, 72 h) and 30 µM in the assay on A549 (Homo sapiens, A549, 72 h). The molecule further had an IC50 in assay [1] greater than 100 µM.

As for `CC(C)C(=O)c1c(O)c2c(c3c1OC1=C(C(=O)C(C)(C)C(=O)C1(C)C)[C@@H]3C(C)C)OC1=C(C(=O)C(C)(C)C(=O)C1(C)C)[C@@H]2C(C)C` (racemic), the GI50 was found to be 26 µM with DU-145 (Homo sapiens, DU-145, 72 h) and 37 µM in the assay on A549 (Homo sapiens, A549, 72 h). Further, the half-maximal inhibitory concentration (IC50) in assay [1] is 33 µM.

Consider `CC(C)[C@@H]1C2=C(Oc3c1c(OCCCN1CCN(C)CC1)cc1c3[C@@H](C(C)C)C3=C(O1)C(C)(C)C(=O)C(C)(C)C3=O)C(C)(C)C(=O)C(C)(C)C2=O`, for which the 50% growth inhibitory concentration (GI50) in the assay with DU-145 (Homo sapiens, DU-145, 72 h) stood at 51 µM; with A549 (Homo sapiens, A549, 72 h), 63 µM. For the same molecule, the IC50 in assay [1] worked out at 20 µM.

For the molecule `CC(COc1cc2c(c3c1[C@H](C(C)C)C1=C(O3)C(C)(C)C(=O)C(C)(C)C1=O)[C@@H](C(C)C)C1=C(O2)C(C)(C)C(=O)C(C)(C)C1=O)CN(C)C` (stereo partly specified), the GI50 stood at 28 µM in the assay with DU-145 (Homo sapiens, DU-145, 72 h) and 46 µM in the assay with A549 (Homo sapiens, A549, 72 h). This molecule also came in with an IC50 in assay [1] of 12 µM.

For the molecule `CC(C)C1C2=C(Oc3c1c(O)cc1c3C(C(C)C)C3=C(O1)C(C)(C)C(=O)C(C)(C)C3=O)C(C)(C)C(=O)C(C)(C)C2=O` (racemic; form 2), the GI50 with DU-145 (72 h) was 15 µM; in the assay on A549 (72 h), 44 µM. Further, in assay [1], the IC50 is 32 µM.

With `COc1c(C(=O)C(C)C)c2c(c3c1[C@@H](C(C)C)C1=C(O3)C(C)(C)C(=O)C(C)(C)C1=O)[C@@H](C(C)C)C1=C(O2)C(C)(C)C(=O)C(C)(C)C1=O` (racemic), the GI50 in the assay with DU-145 (Homo sapiens, DU-145, 72 h) was 20 µM; in the assay on A549 (Homo sapiens, A549, 72 h), 32 µM. The molecule also had an IC50 in assay [1] of 57 µM.

In the case of `CCN(CC)CCOc1cc2c(c3c1[C@H](C(C)C)C1=C(O3)C(C)(C)C(=O)C(C)(C)C1=O)[C@@H](C(C)C)C1=C(O2)C(C)(C)C(=O)C(C)(C)C1=O`, the GI50 stood at 23 µM with DU-145 (Homo sapiens, DU-145, 72 h) and 46 µM in the assay on A549 (Homo sapiens, A549, 72 h). The same molecule had an IC50 in assay [1] of 53 µM.

For `CC(C)[C@@H]1C2=C(Oc3cc(O)c4c(c31)OC1=C(C(=O)C(C)(C)C(=O)C1(C)C)[C@@H]4C(C)C)C(C)(C)C(=O)C(C)(C)C2=O`, the GI50 in the assay on DU-145 (Homo sapiens, DU-145, 72 h) worked out at 28 µM; with A549 (Homo sapiens, A549, 72 h) it was 32 µM. The molecule also had an IC50 in assay [1] of 34 µM.

Take `CC(C)C1C2=C(Oc3c1c(O)cc1c3C(C(C)C)C3=C(O1)C(C)(C)C(=O)C(C)(C)C3=O)C(C)(C)C(=O)C(C)(C)C2=O` (racemic; form 1): the GI50 with DU-145 (Homo sapiens, DU-145, 72 h) was determined as 13 µM; in the assay with A549 (Homo sapiens, A549, 72 h) it was 26 µM. This molecule also registered an IC50 in assay [1] of 29 µM.

On to `Cc1ccc(COc2cc3c(c4c2[C@H](C(C)C)C2=C(O4)C(C)(C)C(=O)C(C)(C)C2=O)[C@@H](C(C)C)C2=C(O3)C(C)(C)C(=O)C(C)(C)C2=O)cc1`, for which the GI50 in the assay on DU-145 (Homo sapiens, DU-145, 72 h) was found to be 15 µM; in the assay with A549 (Homo sapiens, A549, 72 h) it was 29 µM. Also, the midpoint of inhibition in assay [1], the IC50, lay at 31 µM.

`CCN(CC)CCCOc1cc2c(c3c1[C@H](C(C)C)C1=C(O3)C(C)(C)C(=O)C(C)(C)C1=O)[C@@H](C(C)C)C1=C(O2)C(C)(C)C(=O)C(C)(C)C1=O`: the GI50 in the assay on DU-145 (Homo sapiens, DU-145, 72 h) turned out to be 25 µM; in the assay with A549 (Homo sapiens, A549, 72 h), 85 µM. In assay [1], half-maximal inhibition (IC50) was put at 20 µM.

For `CC(C)[C@@H]1C2=C(Oc3c1c(OCCN(C)C)cc1c3[C@@H](C(C)C)C3=C(O1)C(C)(C)C(=O)C(C)(C)C3=O)C(C)(C)C(=O)C(C)(C)C2=O`, the GI50 was determined as 22 µM with DU-145 (Homo sapiens, DU-145, 72 h) and 54 µM in the assay with A549 (Homo sapiens, A549, 72 h). The molecule also came in with an IC50 in assay [1] of 11 µM.

`CC(C)C(=O)c1c(O)c2c(c3c1OC1=C(C(=O)C(C)(C)C(=O)C1(C)C)[C@@H]3C(C)C)OC1=C(C(=O)C(C)(C)C(=O)C1(C)C)[C@H]2C(C)C`: the GI50 in the assay on DU-145 (Homo sapiens, DU-145, 72 h) is 31 µM; in the assay with A549 (Homo sapiens, A549, 72 h), 62 µM. The molecule further yielded an IC50 in assay [1] of 39 µM.

As for `COc1c(C(=O)C(C)C)c2c(c3c1[C@@H](C(C)C)C1=C(O3)C(C)(C)C(=O)C(C)(C)C1=O)[C@H](C(C)C)C1=C(O2)C(C)(C)C(=O)C(C)(C)C1=O` (racemic), the GI50 was 13 µM with DU-145 (Homo sapiens, DU-145, 72 h) and 31 µM in the assay with A549 (Homo sapiens, A549, 72 h). This molecule also displayed an IC50 in assay [1] of 55 µM.

As for `COc1ccc(COc2cc3c(c4c2[C@H](C(C)C)C2=C(O4)C(C)(C)C(=O)C(C)(C)C2=O)[C@@H](C(C)C)C2=C(O3)C(C)(C)C(=O)C(C)(C)C2=O)cc1`, the GI50 was 40 µM in the assay on DU-145 (Homo sapiens, DU-145, 72 h) and 32 µM in the assay with A549 (Homo sapiens, A549, 72 h). This molecule yielded an IC50 in assay [1] of 56 µM.

As for `CC(C)[C@@H]1C2=C(Oc3c1c(OCCN1CCCC1)cc1c3[C@@H](C(C)C)C3=C(O1)C(C)(C)C(=O)C(C)(C)C3=O)C(C)(C)C(=O)C(C)(C)C2=O`, the GI50 turned out to be 22 µM in the assay on DU-145 (Homo sapiens, DU-145, 72 h) and 46 µM with A549 (Homo sapiens, A549, 72 h). This molecule yielded an IC50 in assay [1] of 22 µM.

Turning to `COc1cc(O)c2c(c1C(=O)C(C)C)OC1=C(C(=O)C(C)(C)C(=O)C1(C)C)[C@@H]2C(C)C`, the GI50 in the assay with DU-145 (Homo sapiens, DU-145, 72 h) stood at 28 µM; with A549 (Homo sapiens, A549, 72 h) it was 50 µM. Also, the IC50 in assay [1] is greater than 100 µM.

These data come from ChEMBL document CHEMBL5113405, “Discovery, enantioselective synthesis of myrtucommulone E analogues as tyrosyl-DNA phosphodiesterase 2 inhibitors and their biological activities” (Eur J Med Chem, 2022).
